Literature values in article PMC6727202 (Molecular pharmaceutics, 2019).

System: kidney

For `NCCCC[C@H](N)C(=O)O` [lysine], the “Reduction of kidney uptake of radiolabeled octreotide” value (lysine) is given as ~ 35% and the “Reduction of renal uptake of radiolabeled octreotide” value (oral or intravenous administration of lysine) is given as “up to 40%”.
